Data published in patent US7037656B2, “Methods and compositions for identifying ligands for nuclear receptors” (priority 2000, dated 2006).

How the values were obtained:
Experiment in all cases: Yeast 6x EcRE-lacZ β-galactosidase transactivation assay
[1] = target: T1, Cf ΔA/B EcR + RXR γ + GRIP1 (Choristoneura fumiferana, UniProt O77240); format: cell-based, Choristoneura fumiferana; mouse; conditions: RH 5992 10 μM, 4 hours, DMSO control 0.200
T1 construct: human ubiquitin (76 aa) (N, cleaved yes); expressed in transfected cells; host or cells: yeast (Saccharomyces cerevisiae)
Protocol: (§1) The human RXR α (Genbank accession number X52773), mouse RXR β (Genbank accession number X66224) or mouse RXR γ (Genebank accession number X66225) subtypes were expressed in yeast-E. coli multicopy 2μ expression plasmids under regulation of CUP1 promoter with the LEU2 selective marker (1).
(§2) Briefly, yeast cells are cultured in 5 mL of YPD liquid medium overnight at 30° C. The cell culture was diluted 1:20 in YPD media and further grown until cell density reached an O.D of 0.6. at OD600. The cells were pelleted by centrifugation and washed with 10 mL of TE+0.1M lithium acetate. Cells are then resuspended in 10 mL TE+0.1M lithium acetate and incubated at 30° C. for 1 hour. Cells are collected and resuspended in 0.5 mL of TE+ 0.1M lithium acetate. Aliquots of cells (50 μL), were incubated for 15 minutes at 30° C. with 1–2 μg plasmid DNA in the presence of 5 μg of denatured salmon sperm DNA as DNA carrier. In the case of co-transformation, the indicated plasmids were added simultaneously. 50% polyethyleneglycol of molecular weight 4000, diluted in TE, was added to a final concentration of 35%. DMSO was added to the transformation solution simultaneously to a final concentration 3%. The samples were mixed well by vortexing and incubated for an additional 30 minutes at 30° C. The cell mixture is then heated for 15 minutes at 42° C. […]

[2] = tested on: Cf ΔA/B EcR + RXR β + GRIP1; format: cell-based, Choristoneura fumiferana; mouse; conditions: RH 5992 10 μM, 4 hours, DMSO control 0.205
Protocol: as §1, §2

[3] = target: T2, Aa ΔA/B EcR + Aa USPa + GRIP1 (Aedes aegypti, UniProt P49880); format: cell-based; conditions: RH 5992 10 μM, 4 hours, DMSO control 0.272
T2 construct: ubiquitin (human, 76 aa) (N, cleaved yes); expressed in transfected cells
Protocol: (§3) Briefly, yeast cells are cultured in 5 mL of YPD liquid medium overnight at 30° C. The cell culture was diluted 1:20 in YPD media and further grown until cell density reached an O.D of 0.6. at OD600. The cells were pelleted by centrifugation and washed with 10 mL of TE+0.1M lithium acetate. Cells are then resuspended in 10 mL TE+0.1M lithium acetate and incubated at 30° C. for 1 hour. Cells are collected and resuspended in 0.5 mL of TE+ 0.1M lithium acetate. Aliquots of cells (50 μL), were incubated for 15 minutes at 30° C. with 1–2 μg plasmid DNA in the presence of 5 μg of denatured salmon sperm DNA as DNA carrier. In the case of co-transformation, the indicated plasmids were added simultaneously. 50% polyethyleneglycol of molecular weight 4000, diluted in TE, was added to a final concentration of 35%. DMSO was added to the transformation solution simultaneously to a final concentration 3%. The samples were mixed well by vortexing and incubated for an additional 30 minutes at 30° C. The cell mixture is then heated for 15 minutes at 42° C. Cells were then collected and plated onto appropriate yeast selective media. Transformants of 4 plasmids are selected on the complete media without tryptophan, uracil, leucine and histidine.
(§4) The yeast cells grown overnight in selective liquid media at 30° C. were diluted in prewarmed liquid selective media to 0.1 at OD600 (ODculture). 100 μl of the cell culture was spiked to each well of a.96-well microtiter plate. […] After 4 hours of incubation, 100 μl of 2× “Z” Sarcosine-ONPG buffer (120 mM Na2HPO4, 80 mM NaH2PO4, 20 mM KCl, 2 mM MgSO4, 100 mM beta-mercaptoethanol (Sigma), pH 7.0, 0.4% lauroyl sarcosine (Sigma), 4 mg/mL ONPG (Diagnostic Chemicals limited) was added to each well and the plate was further incubated at 37° C. The 2× “Z” Sarcosine-ONPG buffer is freshly prepared or stored at −20° C. prior to use. After incubation at 37° C. for 1 hour. The reaction was stopped by adding 100 μL of quenching solution 0.5 M Na2CO3 and OD405 (ODreaction) and beta-galactosidase activity was measured in a micro plate reader (Biotek) at a wave length of 405–450 nanometers. […]
(§5) Using the transformation method described above, yeast were co-transformed with a reporter gene as shown in FIG. 2 and the expression vector encoding the full-length Aedes aegypti ecdysone receptor, Aa EcR (FIG. 7A) in the presence or absence of the Aa EcR heterodimer partner, Aa USP (a or b form, FIGS. 8A and 8B respectively). […] As the N-terminal portion of the AaEcR receptor is reported to play a role in ligand independent transactivation, an expression vector containing an N-terminal deletion in the Aa EcR was constructed (see FIG. 7B) and assessed in the β-galactosidase assays described above. […]

Aa EcR = target: T3, Aa EcR (Aedes aegypti, UniProt P49880, DEL155-194); format: cell-based; conditions: RH 5992 10 μM, 4 hours, DMSO control 2.500
T3 construct: ubiquitin (human, 76 aa) (N, cleaved yes); expressed in transfected cells
Protocol: as §3, §4, §5

Aa ΔA/B EcR + Aa USPb = target: T4, Aa ΔA/B EcR + Aa USPb (Aedes aegypti, UniProt P49880); format: cell-based; conditions: RH 5992 10 μM, 4 hours, DMSO control 0.177
T4 construct: ubiquitin (human, 76 aa) (N, cleaved yes); expressed in transfected cells
Protocol: as §3, §4, §5

[4] = target: T5, Aa ΔA/B EcR + AaUSPb + GRIP1 (Aedes aegypti, UniProt P49880); format: cell-based; conditions: RH 5992 10 μM, 4 hours, DMSO control 0.240
T5 construct: ubiquitin (human, 76 aa) (N, cleaved yes); expressed in transfected cells
Protocol: as §3, §4, §5

T1 sequence (O77240 entry or part of it, stated change not applied): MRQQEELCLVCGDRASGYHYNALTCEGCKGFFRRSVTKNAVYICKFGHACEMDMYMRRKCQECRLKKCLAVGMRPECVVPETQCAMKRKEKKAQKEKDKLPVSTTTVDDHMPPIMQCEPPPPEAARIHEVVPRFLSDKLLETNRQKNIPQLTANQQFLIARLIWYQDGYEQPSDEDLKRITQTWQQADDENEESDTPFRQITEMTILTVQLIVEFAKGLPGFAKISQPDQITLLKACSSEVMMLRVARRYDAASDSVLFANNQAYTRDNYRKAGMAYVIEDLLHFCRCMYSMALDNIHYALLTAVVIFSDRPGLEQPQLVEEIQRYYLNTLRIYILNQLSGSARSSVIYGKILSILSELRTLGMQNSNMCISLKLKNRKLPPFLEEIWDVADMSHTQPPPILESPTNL
T1 sequence (P28705 whole entry partner): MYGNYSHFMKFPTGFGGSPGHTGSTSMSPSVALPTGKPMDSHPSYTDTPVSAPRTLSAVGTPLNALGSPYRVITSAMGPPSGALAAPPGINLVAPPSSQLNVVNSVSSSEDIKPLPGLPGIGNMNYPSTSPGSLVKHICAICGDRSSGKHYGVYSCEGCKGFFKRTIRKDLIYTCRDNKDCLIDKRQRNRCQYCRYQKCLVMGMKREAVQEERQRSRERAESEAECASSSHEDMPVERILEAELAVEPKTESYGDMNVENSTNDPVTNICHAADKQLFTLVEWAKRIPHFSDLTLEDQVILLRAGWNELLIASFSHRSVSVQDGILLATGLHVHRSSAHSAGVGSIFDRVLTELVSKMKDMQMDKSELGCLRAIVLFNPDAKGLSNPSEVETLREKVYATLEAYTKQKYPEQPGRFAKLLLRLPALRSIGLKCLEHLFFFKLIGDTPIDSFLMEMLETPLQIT
T2 sequence (P49880 with tags, fused parts or gaps): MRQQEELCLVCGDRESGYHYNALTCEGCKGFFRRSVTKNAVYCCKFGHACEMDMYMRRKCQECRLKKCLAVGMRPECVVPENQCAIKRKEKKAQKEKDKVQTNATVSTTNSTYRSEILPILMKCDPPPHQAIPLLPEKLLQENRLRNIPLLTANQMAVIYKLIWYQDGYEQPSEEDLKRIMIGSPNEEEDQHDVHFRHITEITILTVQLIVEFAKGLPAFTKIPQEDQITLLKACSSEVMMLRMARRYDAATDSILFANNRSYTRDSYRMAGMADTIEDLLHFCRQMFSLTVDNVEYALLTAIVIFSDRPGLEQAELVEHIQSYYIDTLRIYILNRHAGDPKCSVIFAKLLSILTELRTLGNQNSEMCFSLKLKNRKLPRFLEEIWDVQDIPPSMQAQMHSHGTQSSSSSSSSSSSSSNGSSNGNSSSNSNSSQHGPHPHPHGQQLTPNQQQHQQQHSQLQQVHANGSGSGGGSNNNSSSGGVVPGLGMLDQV
T4 sequence (P49880 with tags, fused parts or gaps): as above
T5 sequence (P49880 with tags, fused parts or gaps): as above
T3 sequence (P49880 other isoform, or with tags, fused parts or gaps DEL155-194): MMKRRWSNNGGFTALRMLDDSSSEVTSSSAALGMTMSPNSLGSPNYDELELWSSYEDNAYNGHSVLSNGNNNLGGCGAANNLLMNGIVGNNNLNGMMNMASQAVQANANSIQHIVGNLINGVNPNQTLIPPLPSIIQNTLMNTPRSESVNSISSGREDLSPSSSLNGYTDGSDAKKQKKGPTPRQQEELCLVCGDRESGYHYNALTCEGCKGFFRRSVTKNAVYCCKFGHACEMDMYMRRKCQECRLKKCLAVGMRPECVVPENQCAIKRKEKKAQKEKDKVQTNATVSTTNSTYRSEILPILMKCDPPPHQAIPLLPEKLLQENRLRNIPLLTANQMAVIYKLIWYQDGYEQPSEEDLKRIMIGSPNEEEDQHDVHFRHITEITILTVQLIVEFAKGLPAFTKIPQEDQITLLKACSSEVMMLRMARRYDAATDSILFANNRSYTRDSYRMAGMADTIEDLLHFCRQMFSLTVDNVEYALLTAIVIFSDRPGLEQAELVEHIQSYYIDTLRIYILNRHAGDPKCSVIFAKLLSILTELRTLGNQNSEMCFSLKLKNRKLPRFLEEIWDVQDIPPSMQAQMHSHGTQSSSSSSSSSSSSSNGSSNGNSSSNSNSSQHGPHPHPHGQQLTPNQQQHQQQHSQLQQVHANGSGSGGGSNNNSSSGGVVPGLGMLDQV

CCc1ccc(C(=O)NN(C(=O)c2cc(C)cc(C)c2)C(C)(C)C)cc1 [RH 5992, tebufenozide]
β-galactosidase activity [1]: 1.030
β-galactosidase activity [2]: 0.456
β-galactosidase activity [3]: 2.026
β-galactosidase activity (Aa EcR): 2.750
β-galactosidase activity (Aa ΔA/B EcR + Aa USPb): 0.184
β-galactosidase activity [4]: 2.074
